Tests used:
USP7 = conditions: recently reported USP7 inhibitors; cited from earlier work
HCT116 (p53+/+) cells = experiment: Q-PCR relative expression levels, HCT116 (p53+/+); assay type: cell-based, human
Ub-AMC = Ub-AMC hydrolysis, Michaelis-Menten enzyme kinetics and relative activity of USP constructs; assay type: biochemical
Procedure: Enzymes and substrates were diluted in the reaction buffer (20 mM HEPES, pH 7.4, 150 mM NaCl, and 5 mM DTT) to a concentration of 5 μM for the substrate and 0.5 μM for the enzymes. At the indicated time points following the reaction initiation, 10 μL reaction aliquots were taken and the reaction was stopped by adding SDS sampling buffer and analyzed using SDS-PAGE. Then, the 4–15% gradient gel was stained with Coomassie Brilliant Blue R-250. USP enzymatic activity and inhibition assays were measured at room temperature using the cleavage-sensitive fluorogenic substrate Ub-AMC (Boston Biochem, U-550). The deubiquitination assay was performed following the protocol by Ernst et al.[30]. Briefly, enzyme activity assays were performed in assay buffer in 20 mM HEPES (pH 7.4), 100 mM NaCl, and 5 mM DTT) containing cUSP47CD (in 50 nM), hUSP47CD-UBL12 (in 100 nM) or hUSP7CD (in 100 nM) constructs and serial dilutions of Ub-AMC (final 35 μM). The AMC fluorescence emission was monitored at 460 nm (excitation at 380 nm) for 30–60 min using a SpectraMax M3 plate reader (Molecular Devices). […] The data were fitted using GraphPad Prism 7 (GraphPad Inc.). Fluorescence intensity was recorded every 45 s for 90 min. Data are presented as the mean ± SD (n = 3).

| Molecule | potency and specificity for USP7 (USP7) | relative expression level of USP7 (Q-PCR) (HCT116 (p53+/+) cells) | relative expression level of USP47 (Q-PCR) (HCT116 (p53+/+) cells) | Km (Ub-AMC) | kcat (Ub-AMC) |
| --- | --- | --- | --- | --- | --- |
| C[C@H](CC(=O)N1CCC(O)(Cn2cnc3cc(NC(=O)CCN4CCN(C)CC4)ccc3c2=O)CC1)c1ccccc1 [XL188] | high potency and specificity only for USP7 | – | – | – | – |
| USP7i-2: USP7 siRNA #2, 5′-ACCCUUGGACAAUAUUCCU-3′ (chemistry not given here) | – | 0.5662 | 0.9671 | – | – |
| USP47i-1: USP47 siRNA #1, 5′-AAGCTACTCCTACTCATCTATTT-3′ (chemistry not given here) | – | 0.6273 | 0.3385 | – | – |
| USP47i-2: USP47 siRNA #2, 5′-TGAAAAGGGATGTGCAAAA-3′ (chemistry not given here) | – | 0.9487 | 0.486 | – | – |
| hUSP47CD-UBL12: human USP47 catalytic domain with the first two UBL domains, residues 1-794 (protein, UniProt Q96K76 1-794, looked up, fragment, catalytic domain with UBL1-2) MVPGEENQLVPKEDVFWRCRQNIFDEMKKKFLQIENAAEEPRVLCIIQDTTNSKTVNERITLNLPASTPVRKLFEDVANKVGYINGTFDLVWGNGINTADMAPLDHTSDKSLLDANFEPGKKNFLHLTDKDGEQPQILLEDSSAGEDSVHDRFIGPLPREGSGGSTSDYVSQSYSYSSILNKSETGYVGLVNQAMTCYLNSLLQTLFMTPEFRNALYKWEFEESEEDPVTSIPYQLQRLFVLLQTSKKRAIETTDVTRSFGWDSSEAWQQHDVQELCRVMFDALEQKWKQTEQADLINELYQGKLKDYVRCLECGYEGWRIDTYLDIPLVIRPYGSSQAFASVEEALHAFIQPEILDGPNQYFCERCKKKCDARKGLRFLHFPYLLTLQLKRFDFDYTTMHRIKLNDRMTFPEELDMSTFIDVEDEKSPQTESCTDSGAENEGSCHSDQMSNDFSNDDGVDEGICLETNSGTEKISKSGLEKNSLIYELFSVMVHSGSAAGGHYYACIKSFSDEQWYSFNDQHVSRITQEDIKKTHGGSSGSRGYYSSAFASSTNAYMLIYRLKDPARNAKFLEVDEYPEHIKNLVQKERELEEQEKRQREIERNTCKIKLFCLHPTKQVMMENKLEVHKDKTLKEAVEMAYKMMDLEEVIPLDCCRLVKYDEFHDYLERSYEGEEDTPMGLLLGGVKSTYMFDLLLETRKPDQVFQSYKPGEVMVKVHVVDLKAESVAAPITVRAYLNQTVTEFKQLISKAIHLPAETMRIVLERCYNDLRLLSVSSKTLKAEGFFRSNKVFV | – | – | – | 3 ± 0.6 µM | 0.03 ± 0.002 s⁻¹ |
